Measurements: patent US20100261706A1, “SUBSTITUTED TETRACYCLIC 1H-INDENO [1,2-B]PYRIDINE-2(5H)-ONE ANALOGS THEREOF AND USES THEREOF” (INOTEK PHARMACEUTICALS CORPORATION, priority 2008, published 2010)
Structures can show the parent of a compound that is named as a salt.

biological target: T1, PARP (Mus musculus, UniProt P11103); test: PARP activity in cultured macrophages, whole-cell based assay (3H-NAD+ incorporation after hydrogen peroxide); settings: murine RAW macrophages, 1 hour pretreatment, hydrogen peroxide 0.5 mM
T1 construct: PARP Activity in Cultured Macrophages, Using a Whole-Cell Based Assay; endogenous in cells; host or cells: murine RAW macrophages (ATCC)
Description: Effect of Tetracyclic 1H-indeno[1,2-b]pyridine-2(511)-one Analogs on PARP Activity in Cultured Macrophages, Using a Whole-Cell Based Assay
The murine RAW macrophages (ATCC, American Type Culture Collection, Manassas, Va.) were grown in […] (Invitrogen Life Technologies; Carlsbad, Calif.) medium supplemented with 10% heat-inactivated FBS, 2 mM L-glutamine, and 100 U/ml of penicillin and streptomycin. Cells, between passages 5 and 15, were seeded at a density of 250,000 cells/well in 12 well plates and allowed to grow 48 hours before use. Growth medium was changed on the day of use. Cells were treated with a tetracyclic 1H-indeno[1,2-b]pyridine-2(5H)-one analog diluted in a growth medium supplemented with 10% fetal bovine serum (FBS) for 1 hour prior to the addition of hydrogen peroxide (0.5 mM) for a further 25 minutes. For the measurement of PARP activity, media was removed and replaced with 0.5 ml of the assay buffer (56 mM HEPES-pH 7.5, 28 mM KCl, 28 mM NaCl, 2 mM MgCl2, 0.01% digitonin, and 0.5 μCi/ml of ^3H-NAD^+) for 20 minutes. After aspirating the assay buffer, cells were lysed and transferred to eppendorf tubes containing 250 μl of 50% ice-cold trichloroacetic acid (TCA), which were then placed at 4° C. for 4 hours. Samples were centrifuged at 10,000 g for 10 minutes and supernatant removed. The pellets were washed twice with 500 μl of ice-cold 5% w/v TCA. The pellets were then solubilized in 250 μl of NaOH (0.1 M) containing 2% SDS overnight at 37° C. and the PARP activity was then determined by measuring the radioactivity incorporated using a Wallac scintillation counter. The solubilized protein (250 μl) was mixed with 5 ml of scintillation fluid (ScintiSafe Plus, Fisher Scientific) before being counted for 3 minutes. EC50 values were determined from a dose-response curve.

T1 sequence (P11103 whole entry): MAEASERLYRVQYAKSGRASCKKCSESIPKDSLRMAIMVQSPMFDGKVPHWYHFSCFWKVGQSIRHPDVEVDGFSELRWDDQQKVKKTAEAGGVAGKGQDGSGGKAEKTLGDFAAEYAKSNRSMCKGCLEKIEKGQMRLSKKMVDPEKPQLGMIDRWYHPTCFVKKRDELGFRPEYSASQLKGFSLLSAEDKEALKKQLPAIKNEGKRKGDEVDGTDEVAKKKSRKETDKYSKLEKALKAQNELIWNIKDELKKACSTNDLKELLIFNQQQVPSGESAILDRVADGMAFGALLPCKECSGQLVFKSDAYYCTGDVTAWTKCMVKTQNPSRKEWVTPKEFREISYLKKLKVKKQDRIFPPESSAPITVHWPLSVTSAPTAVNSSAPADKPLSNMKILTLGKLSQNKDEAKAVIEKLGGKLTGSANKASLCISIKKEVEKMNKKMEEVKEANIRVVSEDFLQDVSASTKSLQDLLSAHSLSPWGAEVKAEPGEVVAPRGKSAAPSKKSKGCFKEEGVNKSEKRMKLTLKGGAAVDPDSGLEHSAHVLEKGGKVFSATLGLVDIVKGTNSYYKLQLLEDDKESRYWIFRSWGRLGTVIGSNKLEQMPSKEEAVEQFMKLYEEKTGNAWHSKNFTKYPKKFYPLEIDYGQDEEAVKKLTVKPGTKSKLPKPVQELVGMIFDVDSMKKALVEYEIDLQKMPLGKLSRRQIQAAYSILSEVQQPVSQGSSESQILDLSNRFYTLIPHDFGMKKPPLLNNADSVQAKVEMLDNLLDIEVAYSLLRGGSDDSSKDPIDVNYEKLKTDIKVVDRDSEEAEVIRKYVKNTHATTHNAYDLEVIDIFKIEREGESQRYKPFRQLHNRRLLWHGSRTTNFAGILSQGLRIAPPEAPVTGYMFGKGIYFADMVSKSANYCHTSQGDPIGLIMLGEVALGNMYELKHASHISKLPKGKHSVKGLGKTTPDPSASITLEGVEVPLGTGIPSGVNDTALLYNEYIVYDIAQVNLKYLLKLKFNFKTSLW

EC50 [nM]	Structure (SMILES)
1.5	O=c1[nH]c2c(c3c1CCCC3)Cc1c(CN3CCCCC3)cccc1-2 [Example 4, 10-(piperidin-1-ylmethyl)-3,4,6,11-tetrahydro-1H-indeno[1,2-c]isoquinolin-5(2H)-one hydrochloride]
7.8	O=c1[nH]c2c(c3c1CCCC3)Cc1c(CN3CCCCCC3)cccc1-2 [Example 5, 10-(azepan-1-ylmethyl)-3,4,6,11-tetrahydro-1H-indeno[1,2-c]isoquinolin-5(2H)-one]
8.46	O=c1[nH]c2c(c3c1CCCC3)Cc1c(CN3CCCC3)cccc1-2 [Example 6, 10-(pyrrolidin-1-ylmethyl)-3,4,6,11-tetrahydro-1H-indeno[1,2-c]isoquinolin-5(2H)-one]
8.5	O=c1[nH]c2c(c3c1CCCC3)Cc1c(CN3CCCC3)cccc1-2 [Example 8, 10-(pyrrolidin-1-ylmethyl)-3,4,6,11-tetrahydro-1H-indeno[1,2-c]isoquinolin-5(2H)-one hydrochloride]
37	O=c1[nH]c2c(c3c1CCCC3)Cc1c(CN3CCCCCCC3)cccc1-2 [Example 10, 10-(azocan-1-ylmethyl)-3,4,6,11-tetrahydro-1H-indeno[1,2-c]isoquinolin-5(2H)-one]
749	O=c1[nH]c2c(c3c1CCCC3)Cc1c(CN3CCC(F)(F)CC3)cccc1-2 [Example 12, 10-((4,4-difluoropiperidin-1-yl)methyl)-3,4,6,11-tetrahydro-1H-indeno[1,2-c]isoquinolin-5(2H)-one]
169	O=c1[nH]c2c(c3c1CCCC3)Cc1c(CN3CCSC3)cccc1-2 [Example 13, 10-(thiazolidin-3-ylmethyl)-3,4,6,11-tetrahydro-1H-indeno[1,2-c]isoquinolin-5(2H)-one]
12.7	CCOC1CCN(Cc2cccc3c2Cc2c-3[nH]c(=O)c3c2CCCC3)CC1 [Example 14, 10-((4-ethoxypiperidin-1-yl)methyl)-3,4,6,11-tetrahydro-1H-indeno[1,2-c]isoquinolin-5(2H)-one mesylate]
11.7	O=c1[nH]c2c(c3c1CCCC3)Cc1c(CN3CC[C@H](F)C3)cccc1-2 [Example 15, (S)-10-((3-fluoropyrrolidin-1-yl)methyl)-3,4,6,11-tetrahydro-1H-indeno[1,2-c]isoquinolin-5(2H)-one]
7.8	O=c1[nH]c2c(c3c1CCCC3)Cc1c(CN3CCC(N4CCCCC4)CC3)cccc1-2 [Example 22, 10-(1,4′-bipiperidin-1′-ylmethyl)-3,4,6,11-tetrahydro-1H-indeno[1,2-c]isoquinolin-5(2H)-one dihydrochloride]
80	O=c1[nH]c2c(c3c1CCCC3)Cc1c(CN3CCNCC3)cccc1-2 [Example 31, 10-(piperazin-1-ylmethyl)-3,4,6,11-tetrahydro-1H-indeno[1,2-c]isoquinolin-5(2H)-one]
100	O=c1[nH]c2c(c3c1CCCC3)Cc1cc(CN3CCCC3)ccc1-2 [Example 39, 9-(pyrrolidin-1-ylmethyl)-3,4,6,11-tetrahydro-1H-indeno[1,2-c]isoquinolin-5(2H)-one]

Continued, compound first:

Structure (SMILES)	EC50 [nM]
COCCNCc1cccc2c1Cc1c-2[nH]c(=O)c2c1CCCC2 [Example 27, 10-((2-methoxyethylamino)methyl)-3,4,6,11-tetrahydro-1H-indeno[1,2-c]isoquinolin-5(2H)-one]	16
CN(C)Cc1cccc2c1Cc1c-2[nH]c(=O)c2c1CCCC2 [Example 28]	35
O=c1[nH]c2c(c3c1CCCC3)Cc1c(CO)cccc1-2 [Example 29, 10-(hydroxymethyl)-3,4,6,11-tetrahydro-1H-indeno[1,2-c]isoquinolin-5(2H)-one]	25
COC(=O)c1ccc2c(c1)Cc1c-2[nH]c(=O)c2c1CCCC2 [Example 30, methyl 5-oxo-2,3,4,5,6,11-hexahydro-1H-indeno[1,2-c]isoquinoline-9-carboxylate]	250
O=c1[nH]c2c(c3c1CCCC3)Cc1cc(CO)ccc1-2 [Example 33, 9-(hydroxymethyl)-3,4,6,11-tetrahydro-1H-indeno[1,2-c]isoquinolin-5(2H)-one]	95
CCCN1CCN(Cc2ccc3c(c2)Cc2c-3[nH]c(=O)c3c2CCCC3)CC1 [Example 34, 9-((4-propylpiperazin-1-yl)methyl)-3,4,6,11-tetrahydro-M-indeno[1,2-c]isoquinolin-5(2H)-one]	200
COCCN1CCN(Cc2ccc3c(c2)Cc2c-3[nH]c(=O)c3c2CCCC3)CC1 [Example 35, 9-((4-(2-methoxyethyl)piperazin-1-yl)methyl)-3,4,6,11-tetrahydro-1H-indeno[1,2-c]isoquinolin-5(2H)-one]	300
O=c1[nH]c2c(c3c1CCCC3)Cc1cc(CN3CCOCC3)ccc1-2 [Example 37, 9-(morpholinomethyl)-3,4,6,1′-tetrahydro-4H-indeno[1,2-c]isoquinolin-5(2H)-one]	300
O=c1[nH]c2c(c3c1CCCC3)Cc1cc(CN3CCC(O)CC3)ccc1-2 [Example 38, 9-((4-hydroxypiperidin-1-yl)methyl)-3,4,6,11-tetrahydro-1H-indeno[1,2-c]isoquinolin-5(2H)-one]	300
O=c1[nH]c2c(c3c1CCCC3)Cc1cc(CNC3CCCC3)ccc1-2 [Example 40, 9-((cyclopentylamino)methyl)-3,4,6,11-tetrahydro-1H-indeno[1,2-c]isoquinolin-5(2H)-one]	60
CCCCN1CCN(Cc2ccc3c(c2)Cc2c-3[nH]c(=O)c3c2CCCC3)CC1 [Example 44, 9-((4-butylpiperazin-1-yl)methyl)-3,4,6,11-tetrahydro-4H-indeno[1,2-c]isoquinolin-5(2H)-one]	200
CC(C)(N)c1cccc2c1Cc1c-2[nH]c(=O)c2c1CCCC2 [Example 46, 10-(2-aminopropan-2-yl)-3,4,6,11-tetrahydro-1H-indeno[1,2-c]isoquinolin-5(2H)-one]	8
O=c1[nH]c2c(c3ccsc13)Cc1c(CN3CCC(C(F)(F)F)CC3)cccc1-2 [Example 47, 9-((4-(trifluoromethyl)piperidin-1-yl)methyl)-5,10-dihydro-4H-indeno[1,2-b]thieno[3,2-d]pyridin-4-one]	9
O=c1[nH]c2c(c3sccc13)Cc1c(CN3CCC(C(F)(F)F)CC3)cccc1-2 [Example 54, 9-((4-(trifluoromethyl)piperidin-1-yl)methyl)-5,10-dihydro-4H-indeno[1,2-b]thieno[2,3-d]pyridin-4-one]	> 500
O=c1[nH]c2c(c3ncccc13)Cc1c(CO)cccc1-2 [Example 57, 10-(hydroxymethyl)-6,11-dihydro-5H-indeno[1,2-h][1,6]naphthyridin-5-one]	334
COC(=O)c1cccc2c1Cc1c-2[nH]c(=O)c2c1CCCC2 [Example 63, methyl 5-oxo-2,3,4,5,6,11-hexahydro-1H-indeno[1,2-c]isoquinoline-10-carboxylate]	100
CCN(CC)Cc1ccc2c(c1)Cc1c-2[nH]c(=O)c2c1CCCC2 [Example 64, 9-((diethylamino)methyl)-3,4,6,11-tetrahydro-1H-indeno[1,2-c]isoquinolin-5(2H)-one]	4.48
O=c1[nH]c2c(c3c1CCCC3)Cc1cc(CN3CCC(F)(F)CC3)ccc1-2 [Example 65, 9-((4,4-difluoropiperidin-1-yl)methyl)-3,4,6,11-tetrahydro-1H-indeno[1,2-c]isoquinolin-5(2H)-one]	748
